Measurements: ChEMBL document CHEMBL5137056, “Micromonospora: A Prolific Source of Bioactive Secondary Metabolites with Therapeutic Potential” (J Med Chem, 2022)
≈ marks a conversion by molar mass, not a printed value. Values belong to the compound of their own block, whether it stands above or below them.

Experiments:
[1] = Inhibition of gastrulation in starfish embryo; format: functional; conditions: Marthasterias glacialis
[2] = test system: Staphylococcus aureus; test: Antibacterial activity against Staphylococcus aureus NBRC12732 assessed as bacterial growth inhibition; format: functional
[3] = molecular target: NAD(P)H dehydrogenase [quinone] 1 (Mus musculus) (UniProt Q64669); test: Activation of QR1 in mouse hepatoma cells incubated for 48 hrs by MTT assay; format: cell-based; conditions: Hepatoma cell line, filed as activator
[4] = Upregulation of glutathione level in mouse Hepa1c1c7 cells assessed as drug concentration required for double induction incubated for 48 hrs in presence of NADPH by Ellman method; format: functional
[5] = Inhibition of Staphylococcus tyrS using tyrosine as substrate preincubated for 10 mins by substrate addition and measured after 2 hrs; parameters: species or system Staphylococcus sp.
[6] = test system: KB; test: Cytotoxicity against human KB cells assessed as reduction in cell viability; format: functional; conditions: read-out: ED50 (the source's name)
[7] = test system: Human immunodeficiency virus; test: Antiviral activity agianst HIV assessed as viral growth inhibition; format: functional, organism-based; conditions: Human immunodeficiency virus 1
[8] = test system: Staphylococcus aureus; test: Antibacterial activity methicillin-resistant Staphylococcus aureus ATCC 43300 assessed as bacterial growth inhibition by microdilution method; format: functional

Sequence of NAD(P)H dehydrogenase [quinone] 1 (Mus musculus) (Q64669 whole entry): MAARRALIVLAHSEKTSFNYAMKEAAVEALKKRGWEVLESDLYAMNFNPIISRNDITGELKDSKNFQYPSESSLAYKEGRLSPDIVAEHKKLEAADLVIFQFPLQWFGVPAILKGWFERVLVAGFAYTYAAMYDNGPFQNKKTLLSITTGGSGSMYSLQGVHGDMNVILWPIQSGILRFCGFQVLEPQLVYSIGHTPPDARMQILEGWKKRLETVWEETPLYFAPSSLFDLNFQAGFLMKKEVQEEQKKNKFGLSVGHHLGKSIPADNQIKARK

Compound: C=C/C=C/[C@H]1O[C@@](O)([C@@H](C)[C@H](O)[C@H](C)[C@H]2OC(=O)/C(OC)=C/C(C)=C/[C@@H](C)[C@@H](O)[C@@H](C)C/C(C)=C/C=C/[C@@H]2OC)C[C@@H](O)[C@@H]1C
MIC [1]: 0.01 µg/mL (≈ 0.0158 µM)

MIC [2]: 13 µg/mL (≈ 24.8 µM)
Compound: C[C@H]1CC[C@@H]2[C@H](C=C[C@H]3[C@H](C)/C=C/C[C@]4(C)C=C(CO)[C@H](C[C@@H](C)O)C[C@]45OC(=O)C(=C5O)C(=O)[C@@]23C)C1 [MAKLAMICIN]

Compound: C=C/C=C/[C@H]1O[C@@](O)([C@@H](C)[C@H](O)[C@H](C)[C@H]2OC(=O)/C(OC)=C/C(C)=C/[C@@H](C)[C@@H](O)[C@@H](C)C/C(C)=C/C=C/[C@@H]2OC)C[C@@H](OC(=O)/C=C/C(=O)NC2=C(O)CCC2=O)[C@@H]1C
MIC [1]: 0.01 µg/mL (≈ 0.0121 µM)

CD [3]: 10.1 µM
Compound: CC[C@H]1C[C@@H](C)C(=O)/C=C/[C@]2(C)O[C@H]2[C@H](C)[C@@H](CC)OC(=O)C[C@@H](O)[C@H](C)[C@H]1O[C@@H]1O[C@@H](C)[C@H](O)[C@@H](O)[C@H]1O
CD [4]: 27.7 µM

IC50 [5]: < 0.001 µM
Compound: N[C@@H](Cc1ccc(O)cc1)C(=O)N[C@H](C(=O)O)[C@H]1[C@H](O)[C@]2(O)CO[C@@H]([C@@H]2O)N1O

Compound: COc1n/c(=C\c2ccccc2)c(=O)[nH]/c1=C\c1ccccc1
EC50 [6]: 0.94 µg/mL (≈ 3.09 µM)

Compound: CCC(C)CCCCCCCC[C@@H](O)CC(=O)N[C@@H](CCC(=O)O)C(=O)N[C@@H](CC(C)C)C(=O)N[C@H](CC(C)C)C(=O)N[C@H](C(=O)N[C@@H](CC(=O)O)C(=O)N[C@H](CC(C)C)C(=O)N[C@@H](CC(C)C)C(=O)O)C(C)C (stereo partly specified)
IC50 [7]: 5.3 µM

MIC [2]: 1.6 µg/mL (≈ 3.15 µM)
Compound: CC1=C[C@@]2(C)C/C=C/[C@@H](C)[C@@H]3C=C[C@@H]4C[C@@H](C)CC[C@H]4[C@]3(C)C(=O)C3=C(O)[C@@]2(C[C@H]1C[C@@H](C)O)OC3=O

Compound: CC(C)CCCCCCCC[C@@H](O)CC(=O)N[C@@H](CCC(=O)O)C(=O)N[C@@H](CC(C)C)C(=O)N[C@H](CC(C)C)C(=O)N[C@H](C(=O)N[C@@H](CC(=O)O)C(=O)N[C@H](CC(C)C)C(=O)N[C@@H](CC(C)C)C(=O)O)C(C)C
IC50 [7]: 5.3 µM

Compound: CNC1=CC(=O)c2c(cnc(C)c2C)C1=O [MANSOURAMYCIN A]
MIC [8]: 8 µg/mL
